Experimental data: patent US11174230B2, “(E)-4-(4-acrylamidophenoxy)-N-methylpicolinamide conjugates as potential anticancer agents” (Council of Scientific & Industrial Research, priority 2016, dated 2021)

Key:
Settings in all cases: after 48 h of drug treatment, average of three individual experiments
[1] = system: SKOV3; experiment: MTT cytotoxicity assay, SKOV3 ovarian cancer cells; type: cell-based
Excerpt: (§1) The (E)-4-(4-acrylamidophenoxy)-N-methylpicolinamide conjugates of general formulae 6a-6z and 7a-7aj have been evaluated for their cytotoxicity in selected human cancer cell lines i.e., lung (A549), prostate (DU-145), ovarian (SKOV3) and liver (HepG2) using MTT assay and the values obtained were compared to a standard drug sorafenib, with the concentration (treatment done at ranging from 10^−4 to 10^−8 M) of the compound produces to 50% inhibition of cell growth (IC50) as shown in Table 1. […] The IC50 values (in μM) for compounds 6b, 6c, 6d, 6e, 6g, 6l, 6m, 6o, 6p, 6q, 6t, 6z, 7b and 7g have been illustrated in Table 1.

[2] = system: HepG2; experiment: MTT cytotoxicity assay, HepG2 liver cancer cells; type: cell-based, human
Excerpt: as §1

[3] = system: DU145; experiment: MTT cytotoxicity assay, DU145 prostate cancer cells; type: cell-based
Excerpt: as §1

[4] = system: A549; experiment: MTT cytotoxicity assay, A549 lung cancer cells; type: cell-based
Excerpt: as §1

CNC(=O)c1cc(Oc2ccc(NC(=O)/C=C/c3ccc(OC)cc3)cc2)ccn1 [Compound 6b, (E)-4-(4-(3-(4-methoxyphenyl)acrylamido)phenoxy)-N-methylpicolinamide]
IC50 ([1]; SK-OV-3, Human ovarian cancer): 10.6 ± 0.32 µM
IC50 ([2]; Homo sapiens, HepG2, 48 h): 8 to 13 µM
IC50 [2]: 9.5 µM

CNC(=O)c1cc(Oc2ccc(NC(=O)/C=C/c3cccc(OC)c3OC)cc2)ccn1 [Compound 6c, (E)-4-(4-(3-(2,3-dimethoxyphenyl)acrylamido)phenoxy)-N-methylpicolinamide]
IC50 ([2]; Homo sapiens, HepG2, 48 h): 8 to 13 µM
IC50 [2]: 12.4 ± 0.16 µM

CNC(=O)c1cc(Oc2ccc(NC(=O)/C=C/c3cc(OC)c(OC)c(OC)c3)cc2)ccn1 [Compound 6d, (E)-N-methyl-4-(4-(3-(3,4,5-trimethoxyphenyl)acrylamido)phenoxy)picolinamide]
IC50 ([3]; DU-145, Human prostate cancer): 21.1 ± 0.18 µM
IC50 ([2]; Homo sapiens, HepG2, 48 h): 8 to 13 µM
IC50 [2]: 10.2 µM

CNC(=O)c1cc(Oc2ccc(NC(=O)/C=C/c3cc(OC)ccc3OC)cc2)ccn1 [Compound 6e, (E)-4-(4-(3-(2,5-dimethoxyphenyl)acrylamido)phenoxy)-N-methylpicolinamide]
IC50 ([3]; DU-145, Human prostate cancer): 29.5 ± 0.26 µM
IC50 ([2]; Homo sapiens, HepG2, 48 h): 8 to 13 µM
IC50 [2]: 10.1 µM

CNC(=O)c1cc(Oc2ccc(NC(=O)/C=C/c3cccc(O)c3)cc2)ccn1 [Compound 6g, (E)-4-(4-(3-(3-hydroxyphenyl)acrylamido)phenoxy)-N-methylpicolinamide]
IC50 ([1]; SK-OV-3, Human ovarian cancer): 12 ± 0.11 µM
IC50 ([2]; Homo sapiens, HepG2, 48 h): 8 to 13 µM
IC50 [2]: 10.9 ± 0.22 µM

CNC(=O)c1cc(Oc2ccc(NC(=O)/C=C/c3ccc(Cl)cc3)cc2)ccn1 [Compound 6l, (E)-4-(4-(3-(4-chlorophenyl)acrylamido)phenoxy)-N-methylpicolinamide]
IC50 ([3]; DU-145, Human prostate cancer): 17.9 ± 0.24 µM
IC50 ([1]; SK-OV-3, Human ovarian cancer): 12.6 ± 0.28 µM
IC50 ([2]; Homo sapiens, HepG2, 48 h): 8 to 13 µM
IC50 [2]: 9.6 µM

CNC(=O)c1cc(Oc2ccc(NC(=O)/C=C/c3ccc(Cl)c(Cl)c3)cc2)ccn1 [Compound 6m, (E)-4-(4-(3-(3,4-dichlorophenyl)acrylamido)phenoxy)-N-methylpicolinamide]
IC50 ([4]; A549, Human lung cancer): 9.5 ± 0.22 µM
IC50 ([3]; DU-145, Human prostate cancer): 23.3 ± 0.28 µM
IC50 ([2]; Homo sapiens, HepG2, 48 h): 8 to 13 µM
IC50 [2]: 12.4 ± 0.32 µM

CNC(=O)c1cc(Oc2ccc(NC(=O)/C=C/c3ccc(F)cc3)cc2)ccn1 [Compound 6o, (E)-4-(4-(3-(4-fluorophenyl)acrylamido)phenoxy)-N-methylpicolinamide]
IC50 ([2]; Homo sapiens, HepG2, 48 h): 8 to 13 µM
IC50 [2]: 12.5 ± 0.18 µM

CNC(=O)c1cc(Oc2ccc(NC(=O)/C=C/c3ccc(F)cc3F)cc2)ccn1 [Compound 6p, (E)-4-(4-(3-(2,4-difluorophenyl)acrylamido)phenoxy)-N-methylpicolinamide]
IC50 ([4]; A549, Human lung cancer): 49.4 ± 0.54 µM
IC50 ([2]; Homo sapiens, HepG2, 48 h): 8 to 13 µM
IC50 [2]: 13.1 ± 0.26 µM

CNC(=O)c1cc(Oc2ccc(NC(=O)/C=C/c3ccc(F)c(F)c3)cc2)ccn1 [Compound 6q, (E)-4-(4-(3-(3,4-difluorophenyl)acrylamido)phenoxy)-N-methylpicolinamide]
IC50 ([1]; SK-OV-3, Human ovarian cancer): 11.2 ± 0.26 µM
IC50 ([2]; Homo sapiens, HepG2, 48 h): 8 to 13 µM
IC50 [2]: 11.1 ± 0.14 µM

CNC(=O)c1cc(Oc2ccc(NC(=O)/C=C/c3ccc(C(F)(F)F)cc3)cc2)ccn1 [Compound 6t, (E)-N-methyl-4-(4-(3-(4-(trifluoromethyl)phenyl)acrylamido)phenoxy)picolinamide]
IC50 ([4]; A549, Human lung cancer): 22.3 ± 0.22 µM
IC50 ([2]; Homo sapiens, HepG2, 48 h): 8 to 13 µM
IC50 [2]: 8.2 µM

CNC(=O)c1cc(Oc2ccc(NC(=O)/C=C/c3ccc([N+](=O)[O-])cc3)cc2)ccn1 [Compound 6z, (E)-N-methyl-4-(4-(3-(4-nitrophenyl)acrylamido)phenoxy)picolinamide]
IC50 ([4]; A549, Human lung cancer): 30.1 ± 0.28 µM
IC50 ([3]; DU-145, Human prostate cancer): 28.7 ± 0.36 µM
IC50 ([2]; Homo sapiens, HepG2, 48 h): 8 to 13 µM
IC50 [2]: 12.2 ± 0.22 µM

CNC(=O)c1cc(Oc2ccc(NC(=O)/C=C/c3ccco3)cc2)ccn1 [Compound 7b, (E)-4-(4-(3-(furan-2-yl)acrylamido)phenoxy)-N-methylpicolinamide]
IC50 ([2]; Homo sapiens, HepG2, 48 h): 8 to 13 µM
IC50 [2]: 10.2 µM

CNC(=O)c1cc(Oc2ccc(NC(=O)/C=C/c3cccs3)cc2)ccn1 [Compound 7g, (E)-N-methyl-4-(4-(3-(thiophen-2-yl)acrylamido)phenoxy)picolinamide]
IC50 ([4]; A549, Human lung cancer): 24.1 ± 0.44 µM
IC50 ([3]; DU-145, Human prostate cancer): 12.2 ± 0.26 µM
IC50 ([2]; Homo sapiens, HepG2, 48 h): 8 to 13 µM
IC50 [2]: 13.2 ± 0.11 µM

CNC(=O)c1cc(Oc2ccc(NC(=O)Nc3ccc(Cl)c(C(F)(F)F)c3)cc2)ccn1 [Sorafenib, reference compound]
IC50 ([4]; Human lung cancer): 6.1 ± 0.18 µM
IC50 ([3]; Human prostate cancer): 6.5 ± 0.22 µM
IC50 ([1]; Human ovarian cancer): 9.5 ± 0.12 µM
IC50 [2]: 14.5 µM
